Patent publication US9012499B2, “Pharmaceutical composition comprising oseltamivir phosphate” (Chugai Seiyaku Kabushiki Kaisha, priority 2006, dated 2015)

Assays:
[1] = Color development of sugars and sugar alcohols mixed with oseltamivir phosphate (Example 1); format: physicochemical; conditions: nine parts by weight of test sample and one part of oseltamivir phosphate; for Coloring by mixing with sugars and sugar alcohols, rank of color difference ΔE*, 40° C., 75% RH, one month (open): bottle open; for Coloring by mixing with sugars and sugar alcohols, rank of color difference ΔE*, 60° C. for 2 weeks (sealed): sealed bottle
Procedure: Various samples of sugars and sugar alcohols were mixed with oseltamivir phosphate and the color development was confirmed by the following method. Nine parts by weight of a test sample and one part by weight of oseltamivir phosphate were mixed in a mortar, and the mixture was transferred to a No. 1 standard brown glass bottle (volume: 14 ml) and the bottle was tightly sealed by a polyethylene middle stopper and a polypropylene screw cap. The color of the mixture immediately after mixing was measured by a color difference meter. The mixture was kept in the following two conditions: i) 2 weeks in a 60° C. incubator, or ii) one month in a 40° C. incubator at 75% RH while the bottle was open. Thereafter, the color of the mixture was measured. The color difference before and after the storage ΔE*(CIE L*a*b*) was measured. The measurement of color difference was carried out according to JIS Z-8722, based on 0-45° rear spectrophotometric method using a spectrophotometric color difference meter (SE-2000) (Nippon Denshoku Ltd.).
The A, B and C rank in the table represents ΔE*≦2.5, 2.5<ΔE*≦5.0 and ΔE*>5.0, respectively.

[2] = system: neuraminidase of influenza virus; conditions: Patent Document 1 (WO1998/007685); cited from earlier work
[3] = Equilibrium water content of sugars and sugar alcohols (DVS-1); format: physicochemical; conditions: 25° C., relative humidity 70%
Procedure: Sugars and sugar alcohols (excipients) used in the pharmaceutical composition of the present invention have a characteristic that their equilibrium water content is 1% by weight or less at 25° C. and at 70% relative humidity. That is, the equilibrium water content may be obtained by leaving the samples (sugars or sugar alcohols) in the air that has been held in the predetermined condition of 25° C. and 70% relative humidity for a long time, and then by measuring when the water content in the samples become constant.
(1) Method for Measuring Equilibrium Water Content
Equilibrium water content (25° C., relative humidity 70%) of sugars and sugar alcohols can be measured by the method using a DVS-1 (Surface Measurement Systems Ltd.). The condition for measurement is as follows.
Quantity of samples: 50 to 100 mg (intending to scale 75 mg)
Measurement temperature: 25±1° C.
Setting range of relative humidity: 0 to 100% RH
Measurement step of relative humidity: up to 10%
Hold time: If change of the weight is less than 0.02%, the measurement enters next step, but the change is not stable, the step lasts up to 120 min.

[4] = Color change of wet-granulated sugar alcohol/oseltamivir phosphate formulation after storage (Example 2); format: physicochemical; conditions: 27 g additive + 3 g oseltamivir phosphate, wet granulation with water; 60° C. for 4 weeks under a tight seal
Procedure: Twenty seven grams of a sugar alcohol and 3 g of oseltamivir phosphate were mixed in a mortar, and then kneaded by adding 1 mL of water to carry out the wet granulation. The mixture was dried in a 50° C. constant temperature drying oven for 3 hr to reduce the water content of the formulation to 1% by weight or less. The formulation was kept at 60° C. for 4 weeks under a tight seal and the change of color before and after the storage was measured by a color difference meter.

SMILES	Coloring by mixing with sugars and sugar alcohols, rank of color difference ΔE*, 40° C., 75% RH, one month (open) [1]	Coloring by mixing with sugars and sugar alcohols, rank of color difference ΔE*, 60° C. for 2 weeks (sealed) [1]	Inhibitory activity against neuraminidase of influenza virus [2]	Equilibrium water content [3]	Equilibrium water content ([3]; listed as erythritol)	Color difference ΔE* [4]
OC[C@H]1O[C@@](CO)(O[C@H]2O[C@H](CO)[C@@H](O)[C@H](O)[C@H]2O)[C@@H](O)[C@@H]1O [Sucrose]	B (2.5<ΔE*≦5.0)	A (ΔE*≦2.5)				
CCOC(=O)C1=C[C@@H](OC(CC)CC)[C@H](NC(C)=O)[C@@H](N)C1.O=P(O)(O)O [Oseltamivir phosphate, (−)-ethyl (3R,4R,5S)-4-acetamido-5-amino-3-(1-ethylpropoxy)-cyclohex-1-ene-1-carboxylate monophosphate]	A (ΔE*≦2.5)	A (ΔE*≦2.5)	potent inhibitory activity			
OC[C@@H](O)[C@@H](O)CO [Erythritol]	B (2.5<ΔE*≦5.0)	A (ΔE*≦2.5)		*Equilibrium water content (25° C., relative humidity 70%) is 0.1%, the contents of glucose and mannose as impurities are <0.001% and 0.001%, respectively.	0.1%	4.7
OC[C@@H](O)[C@@H](O)[C@H](O)[C@@H](O)CO [D-sorbitol 1, D-sorbitol]						14.6
OC[C@@H](O)[C@@H](O)[C@H](O)[C@@H](O)CO [D-sorbitol 2, D-sorbitol]						11.2
OC[C@@H](O)[C@H](O)[C@@H](O)CO [Xylitol]	C (ΔE*>5.0)	B (2.5<ΔE*≦5.0)				
OC[C@H]1O[C@H](O[C@H]2[C@H](O)[C@@H](O)C(O)O[C@@H]2CO)[C@H](O)[C@@H](O)[C@@H]1O (mixture of isomers) [Maltose]	C (ΔE*>5.0)	C (ΔE*>5.0)				
OC[C@@H](O)[C@@H](O)[C@H](O)[C@H](O)CO [D-Mannitol]	A (ΔE*≦2.5)	A (ΔE*≦2.5)				3.4
OC[C@@H](O)[C@@H](O)[C@H](O)[C@@H](O)CO [D-sorbitol]	C (ΔE*>5.0)	C (ΔE*>5.0)		1.7%		
